Assay results: patent US20220323437A1, “METHODS FOR TREATING PULMONARY ARTERIAL HYPERTENSION” (ACTELION PHARMACEUTICALS LTD, priority 2019, published 2022)

Assay: Adverse events during switch from oral to i.v. selexipag and back in subjects with stable PAH (Phase 3 study)
Type: in vivo, human
Details: for AE incidence: Blindness unilateral / AE incidence: Chromaturia / AE incidence: Cough / AE incidence: Dyspnoea / AE incidence: Flushing / AE incidence: Headache / AE incidence: Hypokalaemia / AE incidence: Nasopharyngitis / AE incidence: Nausea / AE incidence: Oedema peripheral / AE incidence: Rhegmatogenous retinal detachment / AE incidence: Right ventricular failure / AE incidence: Upper respiratory tract infection / Subjects with at least one AE: Period 3 + follow-up (oral selexipag, up to 37 days)
Procedure: This was a prospective, multicenter, open-label, single-sequence, cross-over, Phase 3 study. Based on the dose of selexipag received at study entry, subjects were allocated to one of the following groups, selexipag 200-1000 μg b.i.d. or selexipag 1200-1600 μg b.i.d. See, FIG. 1. The study comprised the following periods:
(ii) Treatment and observation period: The treatment and observation period included the following consecutive periods: • Period 1 included oral selexipag pre-treatment period for 1 day, in-hospital. This period started with intake of the morning dose of oral selexipag on Day 1 at Visit 2 and ended the following day, before initiation of the first infusion of i.v. selexipag. • Period 2 included i.v. selexipag treatment period for 36 hours [3 infusions], in-hospital. This period started in the morning of Day 2 at Visit 2 with the start of the first infusion of i.v. selexipag and ended in the evening of Day 3 at Visit 2 before the evening administration of oral selexipag. Administration of oral selexipag was interrupted during the i.v. selexipag treatment period. • Period 3 included oral selexipag post-treatment period for 7 to 11 day. This period started in the evening of Day 3 at Visit 2 with the administration of oral selexipag and ended 7-11 days later, at Visit 3.
The endpoints analyzed for Period 1, Period 2, and Period 3 and follow-up period combined included discontinuations due to prostacyclin-associated AEs, adverse events (AEs) and serious adverse events (SAEs), prostacyclin-associated AEs, AEs related to injection site reactions, and PAH-related AEs.
The endpoints analyzed for (i) Period 1, Period 2, and Period 3 and follow-up period combined (ii) Period 1 and Period 2 combined, and (iii) Period 2 and Period 3 combined included discontinuations due to prostacyclin-associated AEs, discontinuations due to any AEs, AEs and SAEs, prostacyclin-associated AEs, PAH-related AEs, change from baseline in vital signs (systolic blood pressure [SBP], diastolic blood pressure [DBP], and pulse rate) and body weight, ECG abnormalities, marked laboratory abnormalities, and change from baseline in WHO FC.
The statistical analysis was mainly descriptive, without formal hypothesis testing. Exact Pearson-Clopper CIs for the incidence of AEs were computed.

[1] = Period 2 (intravenous selexipag treatment), high dose cohort (1200-1600 μg), N = 12
[2] = Period 2 (intravenous selexipag treatment), low dose cohort (200-1000 μg), N = 8
[3] = Period 2 (intravenous selexipag treatment), total, N = 20
[4] = Period 2 (iv selexipag), total, N = 20
[5] = Period 3 (oral selexipag), high dose cohort (1200-1600 μg), N = 12
[6] = Period 3 (oral selexipag), low dose cohort (200-1000 μg), N = 8
[7] = Period 3 (oral selexipag), total, N = 20
[8] = Period 3 + Follow-up (oral selexipag), total, N = 20
[9] = high dose cohort (1200-1600 μg), N = 12
[10] = low dose cohort (200-1000 μg), N = 8

CC(C)N(CCCCOCC(=O)NS(C)(=O)=O)c1cnc(-c2ccccc2)c(-c2ccccc2)n1 [selexipag, 2-{4-[(5,6-diphenylpyrazin-2-yl)(propan-2-yl)amino]butoxy}-N-(methanesulfonyl)acetamide]
Prostacyclin-associated AE incidence: Vomiting [1]: 1 n (%) | Subjects with at least one prostacyclin-associated AE [1]: 6 n (%) | Prostacyclin-associated AE incidence: Diarrhoea [2]: 0 n (%) | Prostacyclin-associated AE incidence: Flushing [2]: 0 n (%) | Prostacyclin-associated AE incidence: Headache [2]: 1 (12.5) n (%) | Prostacyclin-associated AE incidence: Myalgia [2]: 0 n (%) | Prostacyclin-associated AE incidence: Nausea [2]: 0 n (%) | Prostacyclin-associated AE incidence: Pain in jaw [2]: 0 n (%) | Prostacyclin-associated AE incidence: Tension headache [2]: 0 n (%) | Prostacyclin-associated AE incidence: Vomiting [2]: 0 n (%) | Subjects with at least one prostacyclin-associated AE [2]: 1 (12.5) n (%) | Prostacyclin-associated AE incidence: Diarrhoea [3]: 1 n (%) | Prostacyclin-associated AE incidence: Flushing [3]: 1 n (%) | Prostacyclin-associated AE incidence: Headache [3]: 4 n (%) | Prostacyclin-associated AE incidence: Myalgia [3]: 1 n (%) | Prostacyclin-associated AE incidence: Nausea [3]: 1 n (%) | Prostacyclin-associated AE incidence: Pain in jaw [3]: 1 n (%) | Prostacyclin-associated AE incidence: Tension headache [3]: 1 n (%) | Prostacyclin-associated AE incidence: Vomiting [3]: 1 n (%) | Deaths [4]: 0 n (%) | Discontinuations due to prostacyclin-associated AEs [4]: 0 n (%) | Number of subjects with at least one Injection site reaction-AE (ISR-AE) [4]: 2 n (%) | Number of subjects with at least one Prostacyclin-associated AEs [4]: 7 n (%) | Number of subjects with at least one Serious adverse events (SAEs) [4]: 0 n (%) | SAE incidence: Blindness unilateral [4]: 0 n (%) | SAE incidence: Rhegmatogenous retinal detachment [4]: 0 n (%) | SAE incidence: Right ventricular failure [4]: 0 n (%) | PAH-related AE: peripheral edema (Period 3): 2 subjects | PAH-related AE: right ventricular failure in the context of respiratory tract infection (Period 3): 1 subject | subjects with PAH-related AEs (Period 3): 3 subjects | SAE incidence: Right ventricular failure (Period 3 (oral selexipag) + Follow-up, total, N = 20): 1 n (%) | Prostacyclin-associated AE incidence: Flushing [5]: 1 n (%) | Prostacyclin-associated AE incidence: Headache [5]: 1 n (%) | Prostacyclin-associated AE incidence: Nausea [5]: 1 n (%) | Prostacyclin-associated AE incidence: Flushing [6]: 0 n (%) | Prostacyclin-associated AE incidence: Headache [6]: 0 n (%) | Prostacyclin-associated AE incidence: Nausea [6]: 0 n (%) | Prostacyclin-associated AE incidence: Flushing [7]: 1 n (%) | Prostacyclin-associated AE incidence: Headache [7]: 1 n (%) | Prostacyclin-associated AE incidence: Nausea [7]: 1 n (%) | Deaths [8]: 0 n (%) | Discontinuations due to prostacyclin-associated AEs [8]: 0 n (%) | Number of subjects with at least one Injection site reaction-AE (ISR-AE) [8]: 0 n (%) | Number of subjects with at least one Prostacyclin-associated AEs [8]: 1 n (%) | Number of subjects with at least one Serious adverse events (SAEs) [8]: 2 n (%) | AE incidence: Blindness unilateral [9]: 1 n (%) | AE incidence: Chromaturia [9]: 1 n (%) | AE incidence: Cough [9]: 1 n (%) | AE incidence: Dyspnoea [9]: 1 n (%) | AE incidence: Flushing [9]: 1 n (%) | AE incidence: Headache [9]: 1 n (%) | AE incidence: Hypokalaemia [9]: 1 n (%) | AE incidence: Nasopharyngitis [9]: 0 n (%) | AE incidence: Nausea [9]: 1 n (%) | AE incidence: Oedema peripheral [9]: 1 n (%) | AE incidence: Rhegmatogenous retinal detachment [9]: 1 n (%) | AE incidence: Right ventricular failure [9]: 1 n (%) | AE incidence: Upper respiratory tract infection [9]: 1 n (%) | Subjects with at least one AE [9]: 6 n (%) | AE incidence: Blindness unilateral [10]: 0 n (%) | AE incidence: Chromaturia [10]: 0 n (%) | AE incidence: Cough [10]: 0 n (%) | AE incidence: Dyspnoea [10]: 0 n (%) | AE incidence: Flushing [10]: 0 n (%) | AE incidence: Headache [10]: 0 n (%) | AE incidence: Hypokalaemia [10]: 0 n (%) | AE incidence: Nasopharyngitis [10]: 1 (12.5) n (%) | AE incidence: Nausea [10]: 0 n (%) | AE incidence: Oedema peripheral [10]: 1 (12.5) n (%) | AE incidence: Rhegmatogenous retinal detachment [10]: 0 n (%) | AE incidence: Right ventricular failure [10]: 0 n (%) | AE incidence: Upper respiratory tract infection [10]: 0 n (%) | Subjects with at least one AE [10]: 2 (25.0) n (%) | AE incidence: Blindness unilateral (total, N = 20): 1 n (%) | AE incidence: Chromaturia (total, N = 20): 1 n (%) | AE incidence: Cough (total, N = 20): 1 n (%) | AE incidence: Dyspnoea (total, N = 20): 1 n (%) | AE incidence: Flushing (total, N = 20): 1 n (%) | AE incidence: Headache (total, N = 20): 1 n (%) | AE incidence: Hypokalaemia (total, N = 20): 1 n (%) | AE incidence: Nasopharyngitis (total, N = 20): 1 n (%) | AE incidence: Nausea (total, N = 20): 1 n (%) | AE incidence: Oedema peripheral (total, N = 20): 2 n (%) | AE incidence: Rhegmatogenous retinal detachment (total, N = 20): 1 n (%) | AE incidence: Right ventricular failure (total, N = 20): 1 n (%) | AE incidence: Upper respiratory tract infection (total, N = 20): 1 n (%) | Subjects with at least one AE (total, N = 20): 8 n (%) | PAH-related AEs (Periods 1 and 2): No PAH-related AEs | AE profile during treatment with i.v. selexipag (conclusion): consistent with the known safety profile of selexipag | tolerability of the switch from oral selexipag (Period 1) to i.v. selexipag (Period 2) and back to oral selexipag (Period 3) (conclusion): well tolerated | Deaths (whole study): No subject died | discontinued study treatment due to an AE (whole study): No subject | prostacyclin-associated AEs reported as severe, serious, or resulting in discontinuation of study treatment (whole study): None
